The target of data set [1] is T1, 3 × FLAG-tagged HOIP RBR from HEK293T cells (Homo sapiens, UniProt Q96EP0).
T1 construct: expressed in transfected cells; host or cells: HEK293T, transient, modified pcDNA3.1(+)
Nature of the data set: Immunoprecipitation and on-bead polyubiquitination assay after in-cell labeling. In kind it is cell-based. To be noted: 30 μM, E1, UbcH7, ubiquitin. The procedure: Supplementary Figure S12. A) Uncropped SDS gel and B) and Western Blot (FLAG antibody, 1:1000 dilution) from the immunoprecipitation (IP) of 3×FLAG HOIP RBR from HEK293T cells.
The cells had been incubated with compounds (11a) or (11i) [30 µM], or DMSO for 8 h. C) TIC traces for DMSO control, (11a)- and (11i)-treated HEK293T cell lysate after IP and tryptic digest.
D) Extracted TIC traces for the tryptic peptide […], accounting for possible cysteine labelling (iodoacetamide, (11a) or (11i)) and methionine oxidation.
Immunoprecipitation and Polyubiquitination assay
The protein concentrations of the clarified lysates were normalized with reaction buffer (50 mM Tris-HCl, pH 7.5, 1.5 mM MgCl2, 150 mM NaCl, 1 mM Na3VO4, complete protease inhibitor) to 1.5 mg/mL (final volume 500 µL, and <0.1% IGEPAL-CA630). Magnetic beads containing anti-FLAG M2 antibody (20 µL suspension per vial; Merck) were immobilized using a magnetic stand (GE Healthcare), washed with PBS (2 × 0.5 mL) and reaction buffer (2 × 0.5 mL) and then suspended in the lysate mixtures. Beads without lysate was used as control. The bead […]
A polyubiquitination assay master mix was prepared by mixing E1, UbcH7, ubiquitin, MgCl2, in buffer (50 mM HEPES, 150 mM NaCl, pH 7.5). […] All samples were analyzed by SDS PAGE and Western Blot (Figure 6C and Supplementary Figure S13) as described in sections 4.5 and 4.6. […]

The subject of data set [2] is HEK293T cells overexpressing full-length HOIP, HOIL-1L, and SHARPIN. The experiment in a line: CellTiter-Glo Luminescent cell viability assay, transfected cells. To be noted: 17 h. In kind it is cell-based. As for the experimental part: Thurston, Imperial College London. 2.3 × 10^6 cells were seeded into 100 mm Petri dishes in DMEM media supplemented with 10% v/v FBS (Biosera) and 1% v/v L-glutamine/penicillin/streptomycin (Sigma-Aldrich) and incubated at 37 °C overnight. The following morning the cells were transfected using either 6 µg pcDNA3 or 4.5 µg HOIP, 0.3 µg HOIL-1L and 1.2 µg SHARPIN as well as 450 ng pRDII Luc and 180 ng pRLTK (Promega) plasmids. 7 h after transfection, the cells were trypsinized and re-suspended in DMEM media supplemented with 1% v/v FBS (Biosera) and 1% v/v L-glutamine/penicillin/streptomycin (Sigma-Aldrich). […]
Reporter assays: After incubating the plates for 17 h, Firefly and Renilla Luciferase activity was analyzed using the Dual-Luciferase® Reporter Assay System (Promega) and a BertholdTech […]
with Mikrowin 2000 software version 4.41: using its injectors to inject 100 µL LAR II and 100 µL Stop&Glo (see manufacturer’s instructions; Promega #E1960). NF-κB regulated luciferase activity was first normalized to Renilla luciferase activity and then the fold activation relative to cells transfected with empty vector calculated. […]
Cell viability assays: After incubating the plates for 17 h in the presence of compound, cell viability was determined using the CellTiter-Glo® Luminescent Cell Viability Assay according to manufacturer’s instructions (Promega #G7571). […]
For orientation: ATP-based viability assays read luminescence as a measure of living cells.

Entries after “also recorded” stand apart in the source; their conditions may differ.

T1 sequence (Q96EP0 697-1072): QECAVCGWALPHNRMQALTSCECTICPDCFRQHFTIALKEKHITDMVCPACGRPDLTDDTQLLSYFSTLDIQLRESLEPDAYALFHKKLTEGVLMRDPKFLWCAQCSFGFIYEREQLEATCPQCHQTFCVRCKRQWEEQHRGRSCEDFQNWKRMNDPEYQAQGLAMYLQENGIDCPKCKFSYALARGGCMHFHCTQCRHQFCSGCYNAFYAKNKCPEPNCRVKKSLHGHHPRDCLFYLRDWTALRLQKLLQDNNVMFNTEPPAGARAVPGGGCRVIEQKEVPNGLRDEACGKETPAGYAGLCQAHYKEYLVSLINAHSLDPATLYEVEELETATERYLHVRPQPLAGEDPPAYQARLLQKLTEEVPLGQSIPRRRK

In the case of `COC(=O)/C=C/CNC(=O)c1cc2c([nH]c1=O)CCCC2` [Compound 11a], the “catalytic activity of HOIP (free polyubiquitin chain formation) after in-cell labeling” value in data set [1] is listed as “significant loss of the catalytic activity; also recorded: significant decrease in free polyubiquitin chain formation”. Also, the “effect on cell viability” value in data set [2] is “neither compound had any effect on cell viability”.

The values above are taken from publication PMC6383986, “Fragment-Based Covalent Ligand Screening Enables Rapid Discovery of Inhibitors for the RBR E3 Ubiquitin Ligase HOIP” (Journal of the American Chemical Society, 2019).
